Measurements published in US20050271723A1, “Dosage forms for treatment of benign prostatic hyperplasia” (Threshold Pharmaceuticals, Inc., priority 2003, published 2005).
Entries after “also recorded” stand apart in the source; their conditions may differ.

Tests used:
HIF-1α [1] = experiment: HIF-1α expression in LNCaP cells (immunoblot of nuclear and whole cell extracts); assay type: cell-based, human; settings: hypoxic conditions (oxygen level <0.1%)
Description: (§1) See Franklin et al; 1995. […] 20108 USA. Methods: […]

HIF-1α [2] = experiment: HIF-1α expression in PC3 cells (immunoblot of nuclear and whole cell extracts); assay type: cell-based, human; settings: normoxic and hypoxic conditions, 4 hours, dose-dependent
Description: as §1

[3] = tested on: actin, caspase 3, NF-κB, IκBα; experiment: Protein levels of actin, caspase 3, NF-κB, IκBα in prostate cell lines (immunoblot); assay type: cell-based, human; settings: except at 800 μM concentration
Experimental: Methods: Cells were plated at a density of 5×10^5 cells into a dish, and then maintained in 37° C. incubator (5% CO2) for 2 days. Prior to the assay, cells were rinsed twice with pre-warmed (37° C.) RPMI-1640 Medium (ATCC No. 30-2001; 10 mM HEPES; 1 mM sodium pyruvate; 2 mM L-glutamine; 4500 mg glucose/L; 1500 mg sodium bicarbonate/L). Cells were incubated with 2 ml culture medium in the absence or presence of lonidamine at different concentrations for 4 hours at 37° C. either under normoxia or hypoxia (oxygen level<0.1%). At the end of the incubation, the dish was placed on ice, and the cells were washed rapidly twice with cold PBS buffer (4° C.). For nuclear extracts, cells were lysed with buffer A (10 mM Tris, pH7.5; 1.5 mM MgCl2; 10 mM KCl and protease inhibitors and buffer C (0.5 M NaCl; 20 mM Tris pH7.5; 1.5 mM MgCl2; 20% glycerol and protease inhibitors), sequentially. The protease inhibitors used in the experiments were a cocktail of five protease inhibitors (500 mM AEBSF-HCl, 1 mg/ml Aprotinin, 1 mM E-64, 500 mM EDTA and 1 mM Leupeptin; Calbiochem NO 539131). For whole cell lysate, cells were lysed with 150 mM NaCl; 10 mM Tris ph7.5; 10 mM EDTA; 1% Triton X-100; 0.5% Deoxycholate, and protease inhibitors. The protein concentration was measured using a Bio-Rad protein assay. Equal amounts of protein were loaded on a SDS-PAGE gel. […]

LNCaP cells = experiment: Apoptosis assay (caspase 3 activity) in LNCaP cells; assay type: cell-based, human; settings: citrate-producing cells, 6 h
Experimental: (§2) Immunoblotting: Immunoblotting was carried out as described in Example 2. […] Apoptosis Assay: […] Lonidamine was added into each well at different concentrations, and then incubated for 6 h at 37° C. To assess the caspase 3 activity, the homogeneous buffer and caspase 3 substrate (Promega No G7791; Promega Corporation, 2800 Woods Hollow Road, Madison Wis. USA 53711) were added into each well in the presence or absence of caspase 3 inhibitor (Promega No G5961). The fluorescence intensity of cleaved substrate was determined using a fluorescence plate reader at excitation 485 nm and emission 530 nm.

PC3 cells = experiment: Apoptosis assay (caspase 3 activity) in PC3 cells; assay type: cell-based, human; settings: PC3, citrate-oxidizing cells; 6 h
Experimental: as §2

[4] = tested on: human prostate epithelial cells; experiment: Apoptosis assay in primary cultures of human prostate epithelial cells; assay type: cell-based
Experimental: (§3) Primary Cell Cultures: Primary cultures of human prostate epithelial cells (Cambrex No. CC-2555) and human prostate stromal cells (Cambrex No. CC-2508) were obtained from Cambrex Bio Science Rockland, Inc. (191 Thomaston Street, Rockland, Me. 04841). Apoptosis Assay: […] Lonidamine was added into each well at different concentrations, and then incubated for 6 h at 37° C. To assess the caspase 3 activity, the homogeneous buffer and caspase 3 substrate (Promega No G7791; Promega Corporation, 2800 Woods Hollow Road, Madison Wis. USA 53711) were added into each well in the presence or absence of caspase 3 inhibitor (Promega No G5961). The fluorescence intensity of cleaved substrate was determined using a fluorescence plate reader at excitation 485 nm and emission 530 nm.

[5] = tested on: human prostate stromal cells; experiment: Apoptosis assay in primary cultures of human prostate stromal cells; assay type: cell-based; settings: 6 h
Experimental: as §3

[6] = higher doses of lonidamine; usually mild; cited from earlier work

Compound: O=C(O)c1nn(Cc2ccc(Cl)cc2Cl)c2ccccc12 [lonidamine, 1-(2,4-dichlorobenzyl)-1H-indazole-3-carboxylic acid]
- effect on HIF-1α expression, LNCaP compared with PC3 cells (HIF-1α [1]): more pronounced in LNCaP cells than in PC3 cells
- level of HIF-1α protein in nuclear and whole-cell extracts (HIF-1α [2]): reduced the level of HIF-1α protein
- inhibition of protein levels of actin, caspase 3, NF-κB, or IκBα [3]: no detectable inhibition
- activation of caspase 3 (apoptosis) (LNCaP cells): induced activation of caspase 3
- activation of caspase 3 (apoptosis), LNCaP compared with PC3 cells (PC3 cells): significantly greater in LNCaP cells
- induction of apoptosis, epithelial compared with stromal cells ([4]; primary cultures): significantly greater in primary cultures of prostate epithelial cells
- induction of apoptosis ([4]; primary prostate epithelial cells, 6 h): induced apoptosis only in prostate epithelial cells in a dose-dependent manner; also recorded: induces apoptosis
- induction of apoptosis [5]: induction of apoptosis was not observed
- side effects [6]: myalgia and testicular pain
